According to patent US9498463B2, “Compound obtained from gamboge resin, and medical uses of the same” (priority 2010, dated 2016):
≈ marks a conversion by molar mass, not a printed value. Read-outs that look alike come from different tables or passages of the source.

Experiments:
[1] = tested on: Human umbilical venal epithelial cell (HUVEC); test: in vitro; details: HUVEC; for LC50 (50% lethal concentration): normal human cell line; for IC50: Homo sapiens, read-out: IC50 (50% inhibition concentration), HUVEC, normal human cell line
Source text: (§1) In Vitro Anti-Cancer Test
(§2) The in vitro anti-cancer test was primarily used to detect the effect of a candidate drug on cancer cell proliferation. The working principle involved therein is the ability of viable cells to shift alamarBlue (AbD Serotec, UK) from its originally non-fluorescent oxidized state (non-fluorescent, blue) to a reduced form (fluorescent, red) having fluorescence via metabolic reaction. According to the fluorescent data result generated by the alamarBlue reagent thus obtained, the proliferation of the viable cells and cell activity can be quantified for detection.
(§3) In the in vitro anti-cancer tests, a candidate drug was tested at 5 different concentrations of 0.01, 0.1, 1, 10, and 100 μg/ml, and six human cancer cell lines and a normal human cell line were used (see Table 5).

[2] = tested on: Human histocytic lymphoma cell U937; test: cells; details: U-937, read-out: IC50 (50% inhibition concentration), U937
Source text: as §1, §2, §3

[3] = tested on: Human colon adenocarcinoma cell HT-29; test: cells; details: HT-29, read-out: IC50 (50% inhibition concentration), HT-29
Source text: as §1, §2, §3

[4] = tested on: Human lung carcinoma cell A549; test: cells
Source text: as §1, §2, §3

[5] = tested on: Human promyelocytic leukemia cell HL-60; test: cells; details: HL-60, read-out: IC50 (50% inhibition concentration), HL-60
Source text: as §1, §2, §3

[6] = tested on: Human breast adenocarcinoma cell MCF7; test: cells
Source text: as §1, §2, §3

[7] = tested on: Human hepatocellular carcinoma cell HepG2; test: cells; details: HepG2, read-out: IC50 (50% inhibition concentration), HepG2
Source text: as §1, §2, §3

in vitro = test: in vitro
Source text: as §1, §2, §3

[8] = A549, read-out: IC50 (50% inhibition concentration), A549
[9] = Homo sapiens, MCF7, read-out: IC50 (50% inhibition concentration), MCF-7

SMILES	LC50 (50% lethal concentration) [1] [mg/L]	IC50 [2] [mg/L]	IC50 [3] [mg/L]	IC50 [4, 8] [mg/L]	IC50 [5] [mg/L]	IC50 [6, 9] [mg/L]	IC50 [1] [mg/L]	IC50 [7] [mg/L]	other results
C=C(C)C(O)CC[C@]1(C)C=Cc2c(O)c3c(c(CC=C(C)C)c2O1)O[C@]12C(=C[C@@H]4CC1C(C)(C)OC2(C/C=C(/C)C(=O)O)C4=O)C3=O (stereo partly drawn) [Gh-3291, 2-butenoic acid, 2-methyl-4-[(1R,3aS,5S,11R,14aS)-3a,4,5,7-tetrahydro-8-hydroxy-3,3,11-trimethyl-13-(3-methyl-2-butenyl)-11-(3-hydroxy-4-methyl-4-pentenyl)-7,15-dioxo-1,5-methano-1H,3H,11H-furo[3.4-g]pyrano[3.2-b]xanthen-1-yl]-,(2Z)-]	1.4 (≈ 2.17 µM)	–	–	–	–	–	–	–	–
CC(C)=CCc1c2c(c(O)c3c1O[C@]14C(=C[C@@H]5CC1C(C)(C)OC4(C/C=C(/C)C(=O)O)C5=O)C3=O)C=C[C@@](C)(CCC(O)C(C)(C)O)O2 (stereo partly drawn) [Gh-3261, 2-butenoic acid, 2-methyl-4-[(1R,3aS,5S,11R,14aS)-3a,4,5,7-tetrahydro-8-hydroxy-3,3,11-trimethyl-13-(3-methyl-2-butenyl)-11-(3,4-dihydroxy-4-methylpentyl)-7,15-dioxo-1,5-methano-1H,3H,11H-furo[3.4-g]pyrano[3.2-b]xanthen-1-yl]-,(2Z)-]	–	0.11 (≈ 0.166 µM)	1.1 (≈ 1.66 µM)	0.19 (≈ 0.287 µM)	1.9 (≈ 2.87 µM)	0.36	0.29 (≈ 0.438 µM)	1 (≈ 1.51 µM)	–
CC(C)=CCC[C@@]1(C)C=Cc2c(O)c3c(c(CC4OC4(C)C)c2O1)O[C@]12C(=C[C@@H]4CC1C(C)(C)OC2(C/C=C(/C)C(=O)O)C4=O)C3=O (stereo partly drawn) [Gh-3351, 2-butenoic acid, 2-methyl-4-[(1R,3aS,5S,11S,14aS)-3a,4,5,7-tetrahydro-8-hydroxy-3,3,11-trimethyl-13-(2,3-epoxy-3-methylbutyl)-11-(4-methyl-3-pentenyl)-7,15-dioxo-1,5-methano-1H,3H,11H-furo[3.4-g]pyrano[3.2-b]xanthen-1-yl]-,(2Z)-]	3.3 (≈ 5.12 µM)	–	–	–	–	–	–	–	–
C=C(C)C1CC[C@]2(C)C[C@H]1c1c(O)c3c(c(CC=C(C)C)c1O2)O[C@]12C(=C[C@@H]4CC1C(C)(C)OC2(C/C=C(/C)C(=O)O)C4=O)C3=O (stereo partly shown) [Gh-2603-2, gambogellic acid]	–	–	–	–	–	–	–	–	IC50 ([4]; A549, read-out: IC50 (50% inhibition concentration)): 0.2 mg/L (≈ 0.318 µM); CC50 (in vitro): 1.7 mg/L (≈ 2.7 µM)
C=C(C)C1CC[C@@]2(C)Oc3c(CC=C(C)C)c4c(c(O)c3[C@@H]1C2O)C(=O)C1=C[C@@H]2CC3C(C)(C)OC(C/C=C(/C)C(=O)O)(C2=O)[C@@]13O4 (stereo in doubt) [Gh-1050, 2-butenoic acid, 2-methyl-4-[(1R,3aS,5S,9R,10S,13R,16aS,17S)-3a,4,5,7,10,11,12,13-octahydro-8,17-dihydroxy-3,3,13-trimethyl-15-(3-methyl-2-butenyl)-10-(1-methylethenyl)-7,18-dioxo-1,5:9,13-dimethano-1H,3H,9H-furo[3.4-g]oxocino[3.2-b]xanthen-1-yl]-,(2Z)-]	3.4 (≈ 5.27 µM)	–	–	–	–	–	–	–	–
CC(C)=CCC[C@@]1(C)C=Cc2c(O)c3c(c(CC(O)C(C)(C)O)c2O1)O[C@]12C(=C[C@@H]4CC1C(C)(C)OC2(C/C=C(/C)C(=O)O)C4=O)C3=O (stereo partly drawn) [Gh-1036, 2-butenoic acid, 2-methyl-4-[(1R,3aS,5S,11S,14aS)-3a,4,5,7-tetrahydro-8-hydroxy-3,3,11-trimethyl-13-(2,3-dihydroxy-3-methylbutyl)-11-(4-methyl-3-pentenyl)-7,15-dioxo-1,5-methano-1H,3H,11H-furo[3.4-g]pyrano[3.2-b]xanthen-1-yl]-,(2Z)-]	–	0.29 (≈ 0.438 µM)	1.4 (≈ 2.11 µM)	0.22 (≈ 0.332 µM)	0.45 (≈ 0.679 µM)	0.35	0.46 (≈ 0.694 µM)	0.88 (≈ 1.33 µM)	–
CC(C)=CCc1c2c(c(O)c3c1O[C@]14C(=C[C@@H]5CC1C(C)(C)OC4(C/C=C(/C)C(=O)O)C5=O)C3=O)C=C[C@](C)(CCC(O)C(C)(C)O)O2 (stereo partly drawn) [Gh-3271, 2-butenoic acid, 2-methyl-4-[(1R,3aS,5S,11S,14aS)-3a,4,5,7-tetrahydro-8-hydroxy-3,3,11-trimethyl-13-(3-methyl-2-butenyl)-11-(3,4-dihydroxy-4-methylpentyl)-7,15-dioxo-1,5-methano-1H,3H,11H-furo[3.4-g]pyrano[3.2-b]xanthen-1-yl]-,(2Z)-]	–	0.11 (≈ 0.166 µM)	1.8 (≈ 2.72 µM)	0.25 (≈ 0.377 µM)	3 (≈ 4.53 µM)	0.16	0.42 (≈ 0.634 µM)	0.46 (≈ 0.694 µM)	–
CC(C)=CCc1c2c(c(O)c3c1O[C@]14C(=C[C@@H]5CC1C(C)(C)OC4(C/C=C(/C)C(=O)O)C5=O)C3=O)C=C[C@@](C)(C/C=C/C(C)(C)O)O2 [Gh-3272, 2-butenoic acid, 2-methyl-4-[(1R,3aS,5S,11R,14aS)-3a,4,5,7-tetrahydro-8-hydroxy-3,3,11-trimethyl-13-(3-methyl-2-butenyl)-11-(4-hydroxy-4-methyl-2E-pentenyl)-7,15-dioxo-1,5-methano-1H,3H,11H-furo[3.4-g]pyrano[3.2-b]xanthen-1-yl]-,(2Z)-]	2.5 (≈ 3.88 µM)	–	–	–	–	–	–	–	–
CC(C)=CCC[C@]1(C)C=Cc2c(O)c3c(c(CC4OC4(C)C)c2O1)O[C@]12C(=C[C@@H]4CC1C(C)(C)OC2(C/C=C(/C)C(=O)O)C4=O)C3=O (stereo partly drawn) [Gh-3352, 2-butenoic acid, 2-methyl-4-[(1R,3aS,5S,11R,14aS)-3a,4,5,7-tetrahydro-8-hydroxy-3,3,11-trimethyl-13-(2,3-epoxy-3-methylbutyl)-11-(4-methyl-3-pentenyl)-7,15-dioxo-1,5-methano-1H,3H,11H-furo[3.4-g]pyrano[3.2-b]xanthen-1-yl]-,(2Z)-]	0.85 (≈ 1.32 µM)	–	–	–	–	–	–	–	–
CC(C)=CCC[C@]1(C)C=Cc2c(O)c3c(c(CC(O)C(C)(C)O)c2O1)O[C@]12C(=C[C@@H]4CC1C(C)(C)OC2(C/C=C(/C)C(=O)O)C4=O)C3=O (stereo partly drawn) [Gh-1052, 2-butenoic acid, 2-methyl-4-[(1R,3aS,5S,11R,14aS)-3a,4,5,7-tetrahydro-8-hydroxy-3,3,11-trimethyl-13-(2,3-dihydroxy-3-methylbutyl)-11-(4-methyl-3-pentenyl)-7,15-dioxo-1,5-methano-1H,3H,11H-furo[3.4-g]pyrano[3.2-b]xanthen-1-yl]-,(2Z)-]	–	0.22 (≈ 0.332 µM)	1.6 (≈ 2.41 µM)	0.46 (≈ 0.694 µM)	0.23 (≈ 0.347 µM)	0.52	0.47 (≈ 0.709 µM)	1.2 (≈ 1.81 µM)	–
CC(C)=CCC[C@@]1(C)Oc2c(c(O)c3c(c2CC=C(C)C)O[C@]24C(=C[C@@H]5CC2C(C)(C)OC4(C/C=C(/C)C(=O)O)C5=O)C3=O)C[C@H]1O (stereo in doubt) [Gh-1631, 2-butenoic acid, 2-methyl-4-[(1R,3aS,5S,10R,11R,14aS)-3a,4,5,7,10,11-hexahydro-8,10-dihydroxy-3,3,11-trimethyl-13-(3-methyl-2-butenyl)-11-(4-methyl-3-pentenyl)-7,15-dioxo-1,5-methano-1H,3H,9H-furo[3.4-g]pyrano[3.2-b]xanthen-1-yl]-,(2Z)-]	–	0.18 (≈ 0.278 µM)	6.1 (≈ 9.43 µM)	0.14 (≈ 0.216 µM)	0.19 (≈ 0.294 µM)	0.14	0.58 (≈ 0.897 µM)	0.85 (≈ 1.31 µM)	–
CO[C@@]12[C@H](COC(N)=O)C3=C(C(=O)C(C)=C(N)C3=O)N1C[C@@H]1N[C@@H]12 [Mitomycin, mitomycin, reference compound]	–	–	–	–	–	–	–	–	IC50 ([6]; read-out: IC50 (50% inhibition concentration), MCF-7, positive control): 0.15 µM
CC(C)=CCC[C@]1(C)C=Cc2c(O)c3c(c(C(O)C4OC4(C)C)c2O1)O[C@]12C(=C[C@@H]4CC1C(C)(C)OC2(C/C=C(/C)C(=O)O)C4=O)C3=O (stereo partly drawn) [Gh-3353, 2-butenoic acid, 2-methyl-4-[(1R,3aS,5S,11R,14aS)-3a,4,5,7-tetrahydro-8-hydroxy-3,3,11-trimethyl-13-(1-hydroxy-2,3-epoxy-3-methylbutyl)-11-(4-methyl-3-pentenyl)-7,15-dioxo-1,5-methano-1H,3H,11H-furo[3.4-g]pyrano[3.2-b]xanthen-1-yl]-,(2Z)-]	8.4 (≈ 12.7 µM)	–	–	–	–	–	–	–	–
CC(C)=CCc1c2c(c(O)c3c1O[C@]14C(=C[C@@H]5CC1C(C)(C)OC4(C/C=C(\C)C(=O)O)C5=O)C3=O)C=CC(C)(C/C=C\C(C)(C)O)O2 (stereo in doubt) [Gh-3332, 2-butenoic acid, 2-methyl-4-[(1R,3aS,5S,14aS)-3a,4,5,7-tetrahydro-8-hydroxy-3,3,11-trimethyl-13-(3-methyl-2-butenyl)-11-(4-hydroxy-4-methyl-2Z-pentenyl)-7,15-dioxo-1,5-methano-1H,3H,11H-furo[3.4-g]pyrano[3.2-b]xanthen-1-yl]-,(2E)-]	3.3 (≈ 5.12 µM)	–	–	–	–	–	–	–	–
CC(C)=CCC[C@@]1(C)C=Cc2c(O)c3c(c(C(O)C4OC4(C)C)c2O1)O[C@]12C(=C[C@@H]4CC1C(C)(C)OC2(C/C=C(/C)C(=O)O)C4=O)C3=O (stereo partly drawn) [Gh-3311, 2-butenoic acid, 2-methyl-4-[(1R,3aS,5S,11S,14aS)-3a,4,5,7-tetrahydro-8-hydroxy-3,3,11-trimethyl-13-(1-hydroxy-2,3-epoxy-3-methylbutyl)-11-(4-methyl-3-pentenyl)-7,15-dioxo-1,5-methano-1H,3H,11H-furo[3.4-g]pyrano[3.2-b]xanthen-1-yl]-,(2Z)-]	13.9 (≈ 21 µM)	–	–	–	–	–	–	–	–
